Experiment: recombinant barcode read abundance after kanamycin selection (control-corrected) (log10(CPM+1)); higher = more efficient recombination; sequences stand for … in AGTGCAGAGAAAATCGGCCAGTTTTCTCTGCCTGCAGTCCGCATGCCGT…AGATTTATGCAGCGGACTGCCTTTCTCCCAAAGTGATAAACCGGACAGTATCATGGACCGGTTTTCCCGGTAATCCGTATTTGCAAGGTTGGTTTCACT; site = the 11-nt target
Outline: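 The screen was pooled in E. coli and paired targets with IS621 bridge RNA target-binding loops. Recombination efficiency is taken from barcode counts per million at recombinant junctions, averaged and adjusted against the control. Values, in the form log10(CPM+1), come from duplicate plating on chloramphenicol/ampicillin LB agar or on chloramphenicol/ampicillin/kanamycin with 0.1 mM IPTG.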
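Note: IS621 recombinase and bridge RNA in Escherichia coli cells.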

Sequence | recombinant barcode read abundance (log10)
GTACGTCCTTGGGTTCTAACCTGTTGCGT (site GTACGTCCTAG) | 0.0549
GTACGTCCTTGGGTTCTAACCTGTTGCGT (site GTACGTCCTAT) | 0.764
GTAGACCCTTGGGTTCTAACCTGTTGCCG (site GTAGACCCTCG) | 2.32
GTAGACCCTTGGGTTCTAACCTGTTGCCG (site GTTGACCCTAG) | 0.476
GTATCCGCTTGGGTTCTAACCTGTTGCCA (site CGGCTGCCTCC) | 0.0649
GTATCCGCTTGGGTTCTAACCTGTTGCCA (site GTATCCGCTTG) | 1.55
GTATGAGCTTGGGTTCTAACCTGTTGCCA (site GTATGAGCTTG) | 0.906
GTATGAGCTTGGGTTCTAACCTGTTGCCA (site TTATAAGCTTG) | 0.0331
GTATGAGCTTGGGTTCTAACCTGTTGCGG (site GTATGAGCTCC) | 2.06
GTATGAGCTTGGGTTCTAACCTGTTGCGG (site GTATGTGCTCC) | 0.255
GTATGCTCTTGGGTTCTAACCTGTTGCGT (site GTATCCTCTAT) | 0.11
GTATGCTCTTGGGTTCTAACCTGTTGCGT (site GTATGCTCTAC) | 1.17
GTCAACCCTTGGGTTCTAACCTGTTGCGG (site GTAAACCCTCC) | 0.886
GTCAACCCTTGGGTTCTAACCTGTTGCGG (site GTCAACCCTCC) | 2.33
GTCAAGACTTGGGTTCTAACCTGTTGCCG (site GTCAAGACTCG) | 1.94
GTCAAGACTTGGGTTCTAACCTGTTGCCG (site GTCAAGACTTG) | 0.462
GTCAAGCCTTGGGTTCTAACCTGTTGCTA (site GCCAAACCTTA) | 0.345
GTCAAGCCTTGGGTTCTAACCTGTTGCTA (site GTCAAGCCTTA) | 0.705
GTCACGCCTTGGGTTCTAACCTGTTGCAT (site GACACACCTAT) | 0.0978
GTCACGCCTTGGGTTCTAACCTGTTGCAT (site GTCACGCCTAT) | 0.588
GTCACTACTTGGGTTCTAACCTGTTGCCG (site GTCACTACTCG) | 0.74
GTCACTACTTGGGTTCTAACCTGTTGCCG (site GTCCCTACTCG) | 0.0387

Sequence | recombinant barcode read abundance (log10)
GTCACTACTTGGGTTCTAACCTGTTGCCG (site GTCGCTACTCG) | 0.0416
GTCACTACTTGGGTTCTAACCTGTTGCCG (site GTCTCTACTCG) | 0.127
GTCAGCCCTTGGGTTCTAACCTGTTGCTG (site GACAGCCCTCA) | 0.379
GTCAGCCCTTGGGTTCTAACCTGTTGCTG (site GTCAGCCCTCA) | 0.255
GTCATGTCTTGGGTTCTAACCTGTTGCCT (site GCCATGTCTAG) | 0.781
GTCATGTCTTGGGTTCTAACCTGTTGCCT (site GTCATGTCTAG) | 1.45
GTCATGTCTTGGGTTCTAACCTGTTGCTC (site AGACGACCTCC) | 0.0394
GTCATGTCTTGGGTTCTAACCTGTTGCTC (site GTCATGTCTGA) | 1.23
GTCCAGACTTGGGTTCTAACCTGTTGCCT (site GTACAGACTAG) | 0.92
GTCCAGACTTGGGTTCTAACCTGTTGCCT (site GTCCAGACTAG) | 1.97
GTCCAGACTTGGGTTCTAACCTGTTGCCT (site GTGCAGACTAG) | 0.508
GTCCAGACTTGGGTTCTAACCTGTTGCCT (site GTTCAGACTAG) | 0.228
GTCCAGCCTTGGGTTCTAACCTGTTGCAC (site CAAAGAGCTCA) | 0.291
GTCCAGCCTTGGGTTCTAACCTGTTGCAC (site GTCCAGCCTGT) | 2.18
GTCCCCTCTTGGGTTCTAACCTGTTGCCT (site GTCACCTCTAG) | 0.0601
GTCCCCTCTTGGGTTCTAACCTGTTGCCT (site GTCCCCTCTAG) | 1.74
GTCCCCTCTTGGGTTCTAACCTGTTGCCT (site GTCGCCTCTAG) | 0.109
GTCCCCTCTTGGGTTCTAACCTGTTGCCT (site GTCTCCTCTAG) | 0.0122
GTCCCTACTTGGGTTCTAACCTGTTGCCG (site GTCACTACTCG) | 0.12
GTCCCTACTTGGGTTCTAACCTGTTGCCG (site GTCCCTACTCG) | 1.11
GTCCCTACTTGGGTTCTAACCTGTTGCCG (site GTCGCTACTCG) | 0
GTCCCTACTTGGGTTCTAACCTGTTGCCG (site GTCTCTACTCG) | 0.0614

Sequence | recombinant barcode read abundance (log10)
GTCCGCTCTTGGGTTCTAACCTGTTGCCT (site ATCCGCTCTAG) | 1.4
GTCCGCTCTTGGGTTCTAACCTGTTGCCT (site CTCCGCTCTAG) | 0.823
GTCCGCTCTTGGGTTCTAACCTGTTGCCT (site GTCCGCTCTAG) | 2.37
GTCCGCTCTTGGGTTCTAACCTGTTGCCT (site TTCCGCTCTAG) | 0.383
GTCCGGTCTTGGGTTCTAACCTGTTGCTT (site GTCCGGTCTAA) | 1.07
GTCCGGTCTTGGGTTCTAACCTGTTGCTT (site GTCGGGTCTAG) | 0.097
GTCCGTCCTTGGGTTCTAACCTGTTGCTT (site GTCCGTCCTAA) | 0.907
GTCCGTCCTTGGGTTCTAACCTGTTGCTT (site GTCCGTCCTAC) | 0.0973
GTCCGTCCTTGGGTTCTAACCTGTTGCTT (site GTCCGTCCTAG) | 0.249
GTCCGTCCTTGGGTTCTAACCTGTTGCTT (site GTCCGTCCTAT) | 0.416
GTCCTACCTTGGGTTCTAACCTGTTGCTA (site AGAAATACTCG) | 0.442
GTCCTACCTTGGGTTCTAACCTGTTGCTA (site GTCCTACCTTA) | 1.63
GTCCTATCTTGGGTTCTAACCTGTTGCAC (site CGAGGCCCTAA) | 0.0371
GTCCTATCTTGGGTTCTAACCTGTTGCAC (site GTCCTATCTGT) | 1.98
GTCGATCCTTGGGTTCTAACCTGTTGCCT (site GACGATCCTAG) | 0.69
GTCGATCCTTGGGTTCTAACCTGTTGCCT (site GCCGATCCTAG) | 0.639
GTCGATCCTTGGGTTCTAACCTGTTGCCT (site GGCGATCCTAG) | 0.221
GTCGATCCTTGGGTTCTAACCTGTTGCCT (site GTCGATCCTAG) | 1.68
GTCGCCTCTTGGGTTCTAACCTGTTGCCT (site GTCACCTCTAG) | 0.157
GTCGCCTCTTGGGTTCTAACCTGTTGCCT (site GTCCCCTCTAG) | 0.491
GTCGCCTCTTGGGTTCTAACCTGTTGCCT (site GTCGCCTCTAG) | 0.297
GTCGCCTCTTGGGTTCTAACCTGTTGCCT (site GTCTCCTCTAG) | 0.0886

Sequence | recombinant barcode read abundance (log10)
GTCGGAGCTTGGGTTCTAACCTGTTGCAG (site GTCGGAGCTCA) | 0.681
GTCGGAGCTTGGGTTCTAACCTGTTGCAG (site GTCGGAGCTCC) | 0.165
GTCGGAGCTTGGGTTCTAACCTGTTGCAG (site GTCGGAGCTCG) | 0.104
GTCGGAGCTTGGGTTCTAACCTGTTGCAG (site GTCGGAGCTCT) | 1.89
GTCGGGTCTTGGGTTCTAACCTGTTGCCT (site GTCCGGTCTAA) | 0.054
GTCGGGTCTTGGGTTCTAACCTGTTGCCT (site GTCGGGTCTAG) | 1.47
GTCGGTCCTTGGGTTCTAACCTGTTGCCG (site AGTTTAACTGT) | 0.0178
GTCGGTCCTTGGGTTCTAACCTGTTGCCG (site GTCGGTCCTCG) | 1.04
GTCGTCCCTTGGGTTCTAACCTGTTGCCA (site GCCGTCCCTTA) | 0.071
GTCGTCCCTTGGGTTCTAACCTGTTGCCA (site GTCGTCCCTTG) | 0.231
GTCTATGCTTGGGTTCTAACCTGTTGCCT (site GACTATGCTAG) | 0.106
GTCTATGCTTGGGTTCTAACCTGTTGCCT (site GCCTATGCTAG) | 0.213
GTCTATGCTTGGGTTCTAACCTGTTGCCT (site GGCTATGCTAG) | 0.185
GTCTATGCTTGGGTTCTAACCTGTTGCCT (site GTCTATGCTAG) | 0.0906
GTCTCAACTTGGGTTCTAACCTGTTGCCT (site GTCTCAACTAG) | 0.604
GTCTCAACTTGGGTTCTAACCTGTTGCCT (site TTCTGAACTAG) | 0.0305
GTCTCATCTTGGGTTCTAACCTGTTGCAT (site AGTATCCCTCG) | 0.0153
GTCTCATCTTGGGTTCTAACCTGTTGCAT (site GTCTCATCTAT) | 0.362
GTCTCTACTTGGGTTCTAACCTGTTGCGG (site GTCGCTACTCC) | 0
GTCTCTACTTGGGTTCTAACCTGTTGCGG (site GTCTCTACTCC) | 0.00855

From the supplement of paper PMC11208160
